Measurements from the NIST ThermoML archive (doi:10.1016/j.fluid.2017.12.011).

How the values were obtained:
[1] = Boiling temperature at pressure P; conditions: Liquid, Ebulliometric method (Recirculating still)
[2] = Liquid, Ebulliometric method (Recirculating still)

Cc1ccccc1O [2-methylphenol]
Conditions | Boiling temperature at pressure P [°C] | vapor or sublimation pressure [kPa]
[1], 20 kPa | 138.11 | –
[2], 411.26 K | – | 20

Cc1cccc(C)c1O [2,6-dimethylphenol]
Conditions | Boiling temperature at pressure P [°C] | vapor or sublimation pressure [kPa]
[1], 6.7 kPa | 116.91 | –
[1], 8.87 kPa | 122.99 | –
[1], 10.89 kPa | 128.28 | –
[1], 12.74 kPa | 132.49 | –
[1], 14.98 kPa | 136.82 | –
[1], 16.8 kPa | 140.18 | –
[1], 18.91 kPa | 143.50 | –
[1], 20 kPa | 144.96 | –
[1], 21.02 kPa | 146.28 | –
[1], 22.83 kPa | 148.86 | –
[1], 33.02 kPa | 163.40 | –
[1], 35.64 kPa | 165.8 | –
[2], 418.11 K | – | 20

Cc1cccc(O)c1 [3-methylphenol]
Conditions | Boiling temperature at pressure P [°C] | vapor or sublimation pressure [kPa]
[1], 9.29 kPa | 129.09 | –
[1], 11.93 kPa | 135.40 | –
[1], 14.57 kPa | 140.24 | –
[1], 16.68 kPa | 144.32 | –
[1], 18.79 kPa | 147.39 | –
[1], 20 kPa | 149.01 | –
[1], 20.91 kPa | 150.40 | –
[1], 23.02 kPa | 152.89 | –
[1], 25.13 kPa | 155.41 | –
[2], 422.16 K | – | 20
[2], 422.28 K | – | 20
